Source: patent US20240407365A1, “Method for Treating Technical Products” (THOR GMBH, priority 2021, published 2024)

Assay: amount of CMIT remaining in water-based dispersion paint after storage, HPLC
Format: physicochemical
Conditions: paint pH 8.3
Method: The amounts of 5-chloro-2-methyl-4-isothiazolinone and zinc oxide specified in Table 1 were added to and homogeneously incorporated in aliquots of a commercially available, preservative-free, water-based matt interior dispersion paint (pH: 8.3; binder: ethylene vinyl acetate; pigment volume concentration (PVC): 77%). After 30 to 45 minutes, the sodium pyrithione was then added. The controls used were samples containing chloro-2-methyl-4-isothiazolinone and sodium pyrithione without zinc oxide and samples containing chloro-2-methyl-4-isothiazolinone only. The samples were stored at 21° C. and, after the time intervals specified in Table 1 (4 hours, 24 hours, 72 hours, 168 hours and 336 hours), the amount of chloro-2-methyl-4-isothiazolinone remaining in the paint was determined with the aid of HPLC analyses.

[1] = NaPy 0 ppm, CMIT 25 ppm, ZnO 0 ppm
[2] = NaPy 0 ppm, CMIT 50 ppm, ZnO 0 ppm
[3] = NaPy 0 ppm, CMIT 100 ppm, ZnO 0 ppm
[4] = NaPy 130 ppm, CMIT 25 ppm, ZnO 0 ppm
[5] = NaPy 130 ppm, CMIT 25 ppm, ZnO 75 ppm
[6] = NaPy 130 ppm, CMIT 25 ppm, ZnO 150 ppm
[7] = NaPy 130 ppm, CMIT 25 ppm, ZnO 225 ppm
[8] = NaPy 130 ppm, CMIT 25 ppm, ZnO 300 ppm
[9] = NaPy 130 ppm, CMIT 25 ppm, ZnO 375 ppm
[10] = NaPy 130 ppm, CMIT 25 ppm, ZnO 450 ppm
[11] = NaPy 130 ppm, CMIT 25 ppm, ZnO 525 ppm
[12] = NaPy 130 ppm, CMIT 50 ppm, ZnO 0 ppm
[13] = NaPy 130 ppm, CMIT 50 ppm, ZnO 75 ppm
[14] = NaPy 130 ppm, CMIT 50 ppm, ZnO 150 ppm
[15] = NaPy 130 ppm, CMIT 50 ppm, ZnO 225 ppm
[16] = NaPy 130 ppm, CMIT 50 ppm, ZnO 300 ppm
[17] = NaPy 130 ppm, CMIT 50 ppm, ZnO 375 ppm
[18] = NaPy 130 ppm, CMIT 50 ppm, ZnO 450 ppm
[19] = NaPy 130 ppm, CMIT 50 ppm, ZnO 525 ppm
[20] = NaPy 130 ppm, CMIT 100 ppm, ZnO 0 ppm
[21] = NaPy 130 ppm, CMIT 100 ppm, ZnO 75 ppm
[22] = NaPy 130 ppm, CMIT 100 ppm, ZnO 150 ppm
[23] = NaPy 130 ppm, CMIT 100 ppm, ZnO 225 ppm
[24] = NaPy 130 ppm, CMIT 100 ppm, ZnO 300 ppm
[25] = NaPy 130 ppm, CMIT 100 ppm, ZnO 375 ppm
[26] = NaPy 130 ppm, CMIT 100 ppm, ZnO 450 ppm
[27] = NaPy 130 ppm, CMIT 100 ppm, ZnO 525 ppm

SMILES: Cn1sc(Cl)cc1=O [CIMT, 5-chloro-2-methyl-4-isothiazolinone]
- CIMT [ppm] after storage at 21° C. 4 [h] [1]: 25 ppm
- CIMT [ppm] after storage at 21° C. 24 h [1]: 25 ppm
- CIMT [ppm] after storage at 21° C. 72 h [1]: 24 ppm
- CIMT [ppm] after storage at 21° C. 168 h [1]: 24 ppm
- CIMT [ppm] after storage at 21° C. 336 h [1]: 22 ppm
- CIMT [ppm] after storage at 21° C. 4 [h] [2]: 50 ppm
- CIMT [ppm] after storage at 21° C. 24 h [2]: 50 ppm
- CIMT [ppm] after storage at 21° C. 72 h [2]: 49 ppm
- CIMT [ppm] after storage at 21° C. 168 h [2]: 47 ppm
- CIMT [ppm] after storage at 21° C. 336 h [2]: 47 ppm
- CIMT [ppm] after storage at 21° C. 4 [h] [3]: 101 ppm
- CIMT [ppm] after storage at 21° C. 24 h [3]: 100 ppm
- CIMT [ppm] after storage at 21° C. 72 h [3]: 101 ppm
- CIMT [ppm] after storage at 21° C. 168 h [3]: 99 ppm
- CIMT [ppm] after storage at 21° C. 336 h [3]: 95 ppm
- CIMT [ppm] after storage at 21° C. 4 [h] [4]: <LOQ (below the limit of determination (<0.5 ppm CMIT))
- CIMT [ppm] after storage at 21° C. 24 h [4]: <LOQ (below the limit of determination (<0.5 ppm CMIT))
- CIMT [ppm] after storage at 21° C. 72 h [4]: <LOQ (below the limit of determination (<0.5 ppm CMIT))
- CIMT [ppm] after storage at 21° C. 168 h [4]: <LOQ (below the limit of determination (<0.5 ppm CMIT))
- CIMT [ppm] after storage at 21° C. 336 h [4]: <LOQ (below the limit of determination (<0.5 ppm CMIT))
- CIMT [ppm] after storage at 21° C. 4 [h] [5]: 13 ppm
- CIMT [ppm] after storage at 21° C. 24 h [5]: 4 ppm
- CIMT [ppm] after storage at 21° C. 72 h [5]: 1 ppm
- CIMT [ppm] after storage at 21° C. 168 h [5]: <LOQ (below the limit of determination (<0.5 ppm CMIT))
- CIMT [ppm] after storage at 21° C. 336 h [5]: <LOQ (below the limit of determination (<0.5 ppm CMIT))
- CIMT [ppm] after storage at 21° C. 4 [h] [6]: 19 ppm
- CIMT [ppm] after storage at 21° C. 24 h [6]: 11 ppm
- CIMT [ppm] after storage at 21° C. 72 h [6]: 6 ppm
- CIMT [ppm] after storage at 21° C. 168 h [6]: 2 ppm
- CIMT [ppm] after storage at 21° C. 336 h [6]: <LOQ (below the limit of determination (<0.5 ppm CMIT))
- CIMT [ppm] after storage at 21° C. 4 [h] [7]: 23 ppm
- CIMT [ppm] after storage at 21° C. 24 h [7]: 17 ppm
- CIMT [ppm] after storage at 21° C. 72 h [7]: 11 ppm
- CIMT [ppm] after storage at 21° C. 168 h [7]: 7 ppm
- CIMT [ppm] after storage at 21° C. 336 h [7]: 2 ppm
- CIMT [ppm] after storage at 21° C. 4 [h] [8]: 24 ppm
- CIMT [ppm] after storage at 21° C. 24 h [8]: 21 ppm
- CIMT [ppm] after storage at 21° C. 72 h [8]: 14 ppm
- CIMT [ppm] after storage at 21° C. 168 h [8]: 12 ppm
- CIMT [ppm] after storage at 21° C. 336 h [8]: 6 ppm
- CIMT [ppm] after storage at 21° C. 4 [h] [9]: 25 ppm
- CIMT [ppm] after storage at 21° C. 24 h [9]: 22 ppm
- CIMT [ppm] after storage at 21° C. 72 h [9]: 20 ppm
- CIMT [ppm] after storage at 21° C. 168 h [9]: 15 ppm
- CIMT [ppm] after storage at 21° C. 336 h [9]: 10 ppm
- CIMT [ppm] after storage at 21° C. 4 [h] [10]: 26 ppm
- CIMT [ppm] after storage at 21° C. 24 h [10]: 22 ppm
- CIMT [ppm] after storage at 21° C. 72 h [10]: 22 ppm
- CIMT [ppm] after storage at 21° C. 168 h [10]: 19 ppm
- CIMT [ppm] after storage at 21° C. 336 h [10]: 12 ppm
- CIMT [ppm] after storage at 21° C. 4 [h] [11]: 24 ppm
- CIMT [ppm] after storage at 21° C. 24 h [11]: 21 ppm
- CIMT [ppm] after storage at 21° C. 72 h [11]: 21 ppm
- CIMT [ppm] after storage at 21° C. 168 h [11]: 18 ppm
- CIMT [ppm] after storage at 21° C. 336 h [11]: 14 ppm
- CIMT [ppm] after storage at 21° C. 4 [h] [12]: 3 ppm
- CIMT [ppm] after storage at 21° C. 24 h [12]: <LOQ (below the limit of determination (<0.5 ppm CMIT))
- CIMT [ppm] after storage at 21° C. 72 h [12]: <LOQ (below the limit of determination (<0.5 ppm CMIT))
- CIMT [ppm] after storage at 21° C. 168 h [12]: <LOQ (below the limit of determination (<0.5 ppm CMIT))
- CIMT [ppm] after storage at 21° C. 336 h [12]: <LOQ (below the limit of determination (<0.5 ppm CMIT))
- CIMT [ppm] after storage at 21° C. 4 [h] [13]: 21 ppm
- CIMT [ppm] after storage at 21° C. 24 h [13]: 9 ppm
- CIMT [ppm] after storage at 21° C. 72 h [13]: 2 ppm
- CIMT [ppm] after storage at 21° C. 168 h [13]: <LOQ (below the limit of determination (<0.5 ppm CMIT))
- CIMT [ppm] after storage at 21° C. 336 h [13]: <LOQ (below the limit of determination (<0.5 ppm CMIT))
- CIMT [ppm] after storage at 21° C. 4 [h] [14]: 31 ppm
- CIMT [ppm] after storage at 21° C. 24 h [14]: 19 ppm
- CIMT [ppm] after storage at 21° C. 72 h [14]: 11 ppm
- CIMT [ppm] after storage at 21° C. 168 h [14]: 8 ppm
- CIMT [ppm] after storage at 21° C. 336 h [14]: 1 ppm
- CIMT [ppm] after storage at 21° C. 4 [h] [15]: 38 ppm
- CIMT [ppm] after storage at 21° C. 24 h [15]: 29 ppm
- CIMT [ppm] after storage at 21° C. 72 h [15]: 21 ppm
- CIMT [ppm] after storage at 21° C. 168 h [15]: 15 ppm
- CIMT [ppm] after storage at 21° C. 336 h [15]: 8 ppm
- CIMT [ppm] after storage at 21° C. 4 [h] [16]: 47 ppm
- CIMT [ppm] after storage at 21° C. 24 h [16]: 42 ppm
- CIMT [ppm] after storage at 21° C. 72 h [16]: 34 ppm
- CIMT [ppm] after storage at 21° C. 168 h [16]: 24 ppm
- CIMT [ppm] after storage at 21° C. 336 h [16]: 14 ppm
- CIMT [ppm] after storage at 21° C. 4 [h] [17]: 49 ppm
- CIMT [ppm] after storage at 21° C. 24 h [17]: 49 ppm
- CIMT [ppm] after storage at 21° C. 72 h [17]: 40 ppm
- CIMT [ppm] after storage at 21° C. 168 h [17]: 30 ppm
- CIMT [ppm] after storage at 21° C. 336 h [17]: 23 ppm
- CIMT [ppm] after storage at 21° C. 4 [h] [18]: 50 ppm
- CIMT [ppm] after storage at 21° C. 24 h [18]: 47 ppm
- CIMT [ppm] after storage at 21° C. 72 h [18]: 42 ppm
- CIMT [ppm] after storage at 21° C. 168 h [18]: 35 ppm
- CIMT [ppm] after storage at 21° C. 336 h [18]: 28 ppm
- CIMT [ppm] after storage at 21° C. 4 [h] [19]: 51 ppm
- CIMT [ppm] after storage at 21° C. 24 h [19]: 50 ppm
- CIMT [ppm] after storage at 21° C. 72 h [19]: 45 ppm
- CIMT [ppm] after storage at 21° C. 168 h [19]: 38 ppm
- CIMT [ppm] after storage at 21° C. 336 h [19]: 31 ppm
- CIMT [ppm] after storage at 21° C. 4 [h] [20]: 8 ppm
- CIMT [ppm] after storage at 21° C. 24 h [20]: <LOQ (below the limit of determination (<0.5 ppm CMIT))
- CIMT [ppm] after storage at 21° C. 72 h [20]: <LOQ (below the limit of determination (<0.5 ppm CMIT))
- CIMT [ppm] after storage at 21° C. 168 h [20]: <LOQ (below the limit of determination (<0.5 ppm CMIT))
- CIMT [ppm] after storage at 21° C. 336 h [20]: <LOQ (below the limit of determination (<0.5 ppm CMIT))
- CIMT [ppm] after storage at 21° C. 4 [h] [21]: 37 ppm
- CIMT [ppm] after storage at 21° C. 24 h [21]: 25 ppm
- CIMT [ppm] after storage at 21° C. 72 h [21]: 13 ppm
- CIMT [ppm] after storage at 21° C. 168 h [21]: 6 ppm
- CIMT [ppm] after storage at 21° C. 336 h [21]: <LOQ (below the limit of determination (<0.5 ppm CMIT))
- CIMT [ppm] after storage at 21° C. 4 [h] [22]: 52 ppm
- CIMT [ppm] after storage at 21° C. 24 h [22]: 39 ppm
- CIMT [ppm] after storage at 21° C. 72 h [22]: 28 ppm
- CIMT [ppm] after storage at 21° C. 168 h [22]: 16 ppm
- CIMT [ppm] after storage at 21° C. 336 h [22]: 5 ppm
- CIMT [ppm] after storage at 21° C. 4 [h] [23]: 67 ppm
- CIMT [ppm] after storage at 21° C. 24 h [23]: 56 ppm
- CIMT [ppm] after storage at 21° C. 72 h [23]: 37 ppm
- CIMT [ppm] after storage at 21° C. 168 h [23]: 22 ppm
- CIMT [ppm] after storage at 21° C. 336 h [23]: 14 ppm
- CIMT [ppm] after storage at 21° C. 4 [h] [24]: 83 ppm
- CIMT [ppm] after storage at 21° C. 24 h [24]: 76 ppm
- CIMT [ppm] after storage at 21° C. 72 h [24]: 64 ppm
- CIMT [ppm] after storage at 21° C. 168 h [24]: 47 ppm
- CIMT [ppm] after storage at 21° C. 336 h [24]: 28 ppm
- CIMT [ppm] after storage at 21° C. 4 [h] [25]: 93 ppm
- CIMT [ppm] after storage at 21° C. 24 h [25]: 89 ppm
- CIMT [ppm] after storage at 21° C. 72 h [25]: 77 ppm
- CIMT [ppm] after storage at 21° C. 168 h [25]: 63 ppm
- CIMT [ppm] after storage at 21° C. 336 h [25]: 44 ppm
- CIMT [ppm] after storage at 21° C. 4 [h] [26]: 102 ppm
- CIMT [ppm] after storage at 21° C. 24 h [26]: 96 ppm
- CIMT [ppm] after storage at 21° C. 72 h [26]: 88 ppm
- CIMT [ppm] after storage at 21° C. 168 h [26]: 75 ppm
- CIMT [ppm] after storage at 21° C. 336 h [26]: 61 ppm
- CIMT [ppm] after storage at 21° C. 4 [h] [27]: 100 ppm
- CIMT [ppm] after storage at 21° C. 24 h [27]: 101 ppm
- CIMT [ppm] after storage at 21° C. 72 h [27]: 94 ppm
- CIMT [ppm] after storage at 21° C. 168 h [27]: 84 ppm
- CIMT [ppm] after storage at 21° C. 336 h [27]: 72 ppm
